What was measured:
rats = test: Evaluation of wake promoting activity in rats (EEG/EMG sleep/wake scoring); format: in vivo, rat (adult male Wistar); conditions: i.p. route, 100 mg/kg dose; for Mean AUC0-3 h values, Test compound Mean: n = 8 rats per test compound, time awake in first 3 hrs following dosing; for wakefulness as compared to vehicle-treated control groups: rats, p<0.05 vs vehicle
Experimental: Methodology: Evaluation of Wake Promoting Activity in Rats
The methodology utilized for evaluating wake promoting activity of test compounds is based on that described by Edgar and Seidel, Journal of Pharmacology and Experimental Therapeutics, 283:757-769, 1997, and incorporated herein in its entirety by reference.
Animal Surgery. Adult, male Wistar rats (275-320 g from Charles River Laboratories, Wilmington, Mass.) were anesthetized (Nembutal, 45 mg/kg, ip.) and surgically prepared with implants for recording of chronic EEG (encephalographic) and EMG (electromyographic) recording. The EEG implants were made from commercially available components (Plastics One, Roanoke, Va.). EEG signals were recorded from stainless steel screw electrodes: 2 frontal (+3.0 mm AP from bregma, ±2.0 mm ML), and 2 occipital (−4.0 mm AP from bregma, ±2.0 mm ML). Two Teflon-coated stainless steel wires were positioned under the nuchal trapezoid muscles for EMG recording. All electrode leads were inserted into a connector pedestal and the pedestal affixed to the skull by application dental acrylic. Antibiotic was administered post surgically and antibiotic cream was applied to the wound edges to prevent infection. At least one week elapsed between surgery and recording.
Recording environment. Postsurgically, rats were housed in pairs in an isolated room. Food and water were available ad libitum, ambient temperature was 21° C., and humidity was 55%. At least 24 hrs prior to recording, they were placed in Nalgene containers (31×31×31 cm) with a wire-grid top, and entry to the room was prohibited during the day of recording except for dosing. The containers were placed on a rack with two shelves, 4 containers per shelf. Fluorescent overhead room lights were set to a 24 hr. light/dark cycle (on at 7 AM, off at 7 PM). Light levels inside the containers were 38 and 25 lux for the top and bottom shelves respectively. Background white-noise (68 db inside the containers) was present in the room to mask ambient sounds.
Data acquisition. EEG and EMG signals were led via cables to a commutator (Plastics One) and then to pre-amplifiers (model 1700, A-M Systems, Carlsborg, Wash.). EEG and EMG signals were amplified (10K and 1K respectively) and bandpass filtered between 0.3 and 500 Hz for EEG and between 10 and 500 Hz for EMG. […] On the day of dosing, data was recorded for 6 to 10 hours beginning at 11 AM.
Drug administration and study design. Compounds were evaluated on groups of from 4 to 8 rats carried out over one or two separate test sessions. […]
Sleep/wake scoring. Sleep and wake activity were determined manually using ICELUS software. […]

Compound | melting point | Mean AUC0-3 h values, Test compound Mean (rats) | wakefulness as compared to vehicle-treated control groups (rats)
NC(=O)C[S+]([O-])Cc1ccccc1COc1ccccc1 (centres unmarked) | 153 to 154 °C |  | 
CC(=O)N1CCN(C(=O)C[S+]([O-])Cc2ccc(Oc3ccc(Cl)c(Cl)c3)cc2)CC1 (centres unmarked) [Example 22, 1-(4-Acetyl-piperazin-1-yl)-2-[4-(3,4-dichloro-phenoxy)-phenylmethanesulfinyl]-ethanone] |  | 162.7 % of waiking time × hr | significantly greated wakefulness
NC(=O)C[S+]([O-])Cc1ccccc1NC(=O)c1ccc(Cl)cc1 (centres unmarked) [Example 113, N-(2-Carbamoylmethanesulfinylmethyl-phenyl)-4-chloro-benzamide] |  | 99.0 % of waiking time × hr | significantly greated wakefulness

From patent US8071604B2, “Thio-substituted arylmethanesulfinyl derivatives” (Cephalon France, priority 2007, dated 2011)
